Source: ChEMBL document CHEMBL1201862, “PubChem BioAssay data set” (2004)
Active and inactive are the calls of the source. Cut-off read from the data, not from the text of the source, for most assays here: actives have a measured EC50 and inactives only a lower limit.

Key:
[1] = Luminescence Cell-Based Dose Retest to Confirm Inhibitors of Cancer Stem Cells. [Related pubchem assays (depositor defined):AID2717, AID2721]; assay type: functional; conditions: Homo sapiens
[2] = biological target: T1, Heat shock factor protein 1 (Mus musculus, UniProt P38532); experiment: HSF1 potentiators in luciferase reporter cells, confirmation, cell-based, NIH3T3, luminescence, dose retest (AID 435004); assay type: functional;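 note: stress induced by proteasome inhibitor MG132 added 30 min after compound; luciferase reporter driven by HSF1 response element in NIH3T3 cells; actives raise luminescence as potentiators of the MG132 stress response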
T1 sequence (P38532 whole entry): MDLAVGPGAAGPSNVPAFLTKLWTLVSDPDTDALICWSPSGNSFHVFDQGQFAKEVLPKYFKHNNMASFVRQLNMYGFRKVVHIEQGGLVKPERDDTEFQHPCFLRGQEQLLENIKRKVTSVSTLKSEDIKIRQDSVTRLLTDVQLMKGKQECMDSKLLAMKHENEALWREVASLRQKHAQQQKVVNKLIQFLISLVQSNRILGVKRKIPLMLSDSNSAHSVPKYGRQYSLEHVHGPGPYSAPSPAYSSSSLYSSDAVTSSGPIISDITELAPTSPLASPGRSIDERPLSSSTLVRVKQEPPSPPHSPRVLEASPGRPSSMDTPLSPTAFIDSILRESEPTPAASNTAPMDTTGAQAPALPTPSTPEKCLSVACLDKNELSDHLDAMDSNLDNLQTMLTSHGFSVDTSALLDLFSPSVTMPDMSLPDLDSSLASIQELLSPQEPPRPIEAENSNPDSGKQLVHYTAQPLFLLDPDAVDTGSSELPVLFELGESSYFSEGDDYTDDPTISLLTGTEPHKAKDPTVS

INS1 = experiment: beta cell apoptosis inhibitors, cytokine rescue, dose response, luminescence, retest (AID 449756); assay type: functional, cell-based; conditions: Rattus norvegicus;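 note: cell death triggered by IL-1 beta plus TNF-alpha plus IFN-gamma mixture; protective hits raise ATP signal compared with cytokine alone wells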
[3] = biological target: T2, Rac GTPase-activating protein 1 (Homo sapiens, UniProt Q9H0H5); experiment: MgcRacGAP GTPase-activating activity inhibitors, confirmation, biochemical, ADP Hunter fluorescence, primary and confirmatory (AID 624330); assay type: functional
T2 sequence (Q9H0H5 whole entry): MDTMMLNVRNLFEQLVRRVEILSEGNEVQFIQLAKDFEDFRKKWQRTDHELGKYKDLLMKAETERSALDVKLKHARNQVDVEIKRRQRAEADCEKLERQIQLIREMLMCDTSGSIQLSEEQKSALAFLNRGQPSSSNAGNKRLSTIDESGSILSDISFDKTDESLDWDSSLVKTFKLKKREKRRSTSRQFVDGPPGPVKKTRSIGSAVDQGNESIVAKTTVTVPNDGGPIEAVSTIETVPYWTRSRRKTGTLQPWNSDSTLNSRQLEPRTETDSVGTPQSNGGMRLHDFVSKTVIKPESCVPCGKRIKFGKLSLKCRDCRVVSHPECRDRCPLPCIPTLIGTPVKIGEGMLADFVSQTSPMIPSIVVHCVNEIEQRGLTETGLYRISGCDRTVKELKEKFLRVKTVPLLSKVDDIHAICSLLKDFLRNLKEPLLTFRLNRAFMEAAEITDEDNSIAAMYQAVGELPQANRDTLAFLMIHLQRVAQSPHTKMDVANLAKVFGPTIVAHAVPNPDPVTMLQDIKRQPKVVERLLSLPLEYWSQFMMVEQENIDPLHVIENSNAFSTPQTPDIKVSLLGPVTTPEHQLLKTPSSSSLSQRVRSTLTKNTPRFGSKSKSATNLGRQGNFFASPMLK

[4] = biological target: T3, RNA-binding protein pos-1 (Caenorhabditis elegans, UniProt G5EF15); experiment: inhibitors of POS-1/mex-3 RNA binding, dose response, biochemical, fluorescence polarization (AID 1964);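 note: purified POS-1 fused to maltose binding protein made in E. coli; potency of compounds blocking POS-1 binding to fluorescent RNA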
T3 sequence (G5EF15 whole entry): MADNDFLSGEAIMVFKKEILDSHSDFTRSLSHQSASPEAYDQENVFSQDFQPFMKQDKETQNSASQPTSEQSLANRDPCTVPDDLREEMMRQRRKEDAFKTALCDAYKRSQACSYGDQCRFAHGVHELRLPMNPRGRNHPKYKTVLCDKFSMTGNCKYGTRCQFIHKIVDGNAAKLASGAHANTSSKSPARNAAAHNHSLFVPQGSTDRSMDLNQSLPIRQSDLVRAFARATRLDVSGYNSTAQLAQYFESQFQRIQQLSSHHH

[5] = biological target: T4, Zinc finger protein mex-5 (Caenorhabditis elegans, UniProt Q9XUB2); experiment: MEX-5/TCR-2 RNA interaction inhibitors, dose response, biochemical, C. elegans, fluorescence polarization (AID 1960)
T4 sequence (Q9XUB2 whole entry): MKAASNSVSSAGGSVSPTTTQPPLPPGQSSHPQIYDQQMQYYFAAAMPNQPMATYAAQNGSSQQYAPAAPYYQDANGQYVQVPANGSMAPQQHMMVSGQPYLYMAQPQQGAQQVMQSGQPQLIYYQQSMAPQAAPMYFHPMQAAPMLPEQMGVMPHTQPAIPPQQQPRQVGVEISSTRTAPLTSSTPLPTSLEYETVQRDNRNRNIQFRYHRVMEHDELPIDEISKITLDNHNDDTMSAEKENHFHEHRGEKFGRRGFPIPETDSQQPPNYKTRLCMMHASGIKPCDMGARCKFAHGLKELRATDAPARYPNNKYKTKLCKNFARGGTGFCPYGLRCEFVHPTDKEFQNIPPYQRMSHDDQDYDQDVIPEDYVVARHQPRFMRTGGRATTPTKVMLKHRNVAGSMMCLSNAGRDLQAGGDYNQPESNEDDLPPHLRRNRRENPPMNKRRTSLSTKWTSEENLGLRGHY

[6] = P. falciparum Dd2 growth inhibitors, dose response, SYBR Green, cherry-picked samples (AID 1159567); assay type: functional, cell-based
[7] = biological target: T5, Corticotropin-releasing factor receptor 2/Corticotropin-releasing factor-binding protein (Homo sapiens, UniProt P24387+Q13324); experiment: activators of CRF receptor 2 with binding protein – uHTS hits, confirmation (AID 602473); assay type: functional; conditions: read-out: EC50_Mean
T5 sequence (Q13324 whole entry): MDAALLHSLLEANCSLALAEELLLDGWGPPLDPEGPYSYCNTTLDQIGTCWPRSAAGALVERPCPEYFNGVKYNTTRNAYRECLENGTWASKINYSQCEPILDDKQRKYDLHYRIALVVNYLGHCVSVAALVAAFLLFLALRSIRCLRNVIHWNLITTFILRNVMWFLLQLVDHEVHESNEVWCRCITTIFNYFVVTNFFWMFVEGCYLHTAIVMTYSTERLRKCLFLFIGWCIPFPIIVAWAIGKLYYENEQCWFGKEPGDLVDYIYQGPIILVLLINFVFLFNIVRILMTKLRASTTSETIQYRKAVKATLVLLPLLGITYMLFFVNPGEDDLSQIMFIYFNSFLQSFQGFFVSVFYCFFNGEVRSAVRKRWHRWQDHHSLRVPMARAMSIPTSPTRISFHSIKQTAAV
T5 sequence (P24387 whole entry): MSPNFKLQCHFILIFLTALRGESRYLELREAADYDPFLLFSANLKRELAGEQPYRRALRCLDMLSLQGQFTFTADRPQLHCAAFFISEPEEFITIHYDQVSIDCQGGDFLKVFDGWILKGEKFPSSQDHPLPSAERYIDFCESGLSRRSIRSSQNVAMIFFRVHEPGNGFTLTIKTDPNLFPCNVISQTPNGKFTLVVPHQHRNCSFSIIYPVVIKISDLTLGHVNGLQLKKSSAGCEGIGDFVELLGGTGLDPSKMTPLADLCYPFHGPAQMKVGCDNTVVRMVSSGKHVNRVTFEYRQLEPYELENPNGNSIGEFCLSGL

[8] = tested on: Streptococcus sp. 'group A'; experiment: growth inhibition of control SK(-) GAS strain, dose response, counter-screen for streptokinase expression inhibitor project, luminescence, kanamycin, BacTiterGlo, confirmation (AID 1900); assay type: functional, organism-based
Streptokinase A = biological target: T6, Streptokinase A (Streptococcus pyogenes serotype M1, UniProt P10520); experiment: S. pyogenes streptokinase expression inhibitors, potency, dose response, plasminogen activation absorbance, OD405 (AID 1914); assay type: functional, Streptococcus pyogenes M1 GAS;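 note: secreted streptokinase activity via plasminogen activation per viability signal from cell pellet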
T6 sequence (P10520 whole entry): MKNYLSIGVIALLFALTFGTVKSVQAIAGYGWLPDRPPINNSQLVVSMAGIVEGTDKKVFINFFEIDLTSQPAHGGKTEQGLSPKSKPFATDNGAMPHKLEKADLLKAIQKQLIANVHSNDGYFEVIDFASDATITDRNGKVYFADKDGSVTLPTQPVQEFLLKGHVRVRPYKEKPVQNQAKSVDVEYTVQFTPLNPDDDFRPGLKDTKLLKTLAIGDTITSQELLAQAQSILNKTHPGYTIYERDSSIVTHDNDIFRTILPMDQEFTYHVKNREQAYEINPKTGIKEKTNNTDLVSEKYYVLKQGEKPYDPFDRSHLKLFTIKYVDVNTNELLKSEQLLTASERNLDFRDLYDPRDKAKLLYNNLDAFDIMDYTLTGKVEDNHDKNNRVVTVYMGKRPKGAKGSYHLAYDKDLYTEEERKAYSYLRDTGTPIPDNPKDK

Streptococcus = experiment: Group A Streptococcus viability loss, dose response, counter-screen for streptokinase expression inhibitor project, luminescence, BacTiterGlo (AID 1915); assay type: functional, organism-based;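 note: potency for reduction of bacterial viability or growth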

## COc1ccc2c(c1)CCc1c(C(=O)N3CC4(C)CC3CC(C)(C)C4)noc1-2 (configuration not stated)
[1]
  AC50: < 0.16 µM (active)
[2]
  EC50: > 260 µM (inactive)

## COc1ccc(-c2ccc3c(c2)S(=O)(=O)c2cccc(C(=O)NCCOc4ccccc4Cl)c2C3=O)cc1OC
INS1
  AC50: 3.41 µM (active)

## CCOc1cc(/C=N/NC(=O)CN2CCCCC2)ccc1O
[3]
  IC50: 50.4 µM (active)

## Cc1cc(C(=O)N2CCN(c3ccccn3)CC2)c(C)o1
[2]
  EC50: > 260 µM (inactive)

## CC(=O)Nc1ccc(/C=C/C(=O)c2ccc3c(c2)OCCO3)cc1
[4]
  EC50: > 300 µM (not active)
[5]
  EC50: > 300 µM (not active)

## COc1ccc(C#Cc2ccc3c(c2)[C@H]2[C@H](CCN2C(=O)C2CCC2)[C@@H](CO)N3)cc1
[6]
  AC50: 3.22 µM (active)

## CC(C)CCNC1c2ccccc2C(=O)N1Cc1ccccc1 (configuration not stated)
[2]
  EC50: > 260 µM (inactive)

## O=C(c1cn(CC(=O)N2CCCCC2)c2ccccc12)C1CC1
[2]
  EC50: > 260 µM (inactive)

## O=C(NC(CO)(CO)CO)c1coc(=O)c(Br)c1
[2]
  EC50: > 260 µM (inactive)

## Cc1ccc(C)c(OCC(O)CN2CCC(C)CC2)c1C (configuration not stated)
[3]
  IC50: 225 µM (active)

## O=C(Nc1nnc(-c2ccccc2)o1)c1cc(Cl)sc1Cl
[7]
  EC50: > 53 µM (inactive)

## CCOc1ccc(C(=O)NC2CC3CCCC(C2)N3CC(C)C)cc1 (configuration not stated)
[2]
  EC50: > 260 µM (inactive)

## COc1cc(CNc2ccc(N3CCN(C(C)=O)CC3)cc2)ccc1OCc1ccccc1
[3]
  IC50: 12.8 µM (active)

## CCCNC(=O)c1cc2c(c(-c3cccc(-c4cc5ccccc5o4)c3)n1)[C@@H](CCO)N(C(=O)NC(C)C)C2
[6]
  AC50: 4.15 µM (active)

## COc1ccc(C#Cc2cccc(-c3nc(C(=O)N[C@@H]4CCN(Cc5ccccc5)C4)cc4c3[C@@H](CCO)N([S+]([O-])C(C)(C)C)C4)c2)cc1OC (some centres not stated)
[6]
  AC50: 3.58 µM (active)

## CCO/C(O)=C/C(C)=N/c1cc(C)nn1-c1ccccc1
[2]
  EC50: > 260 µM (inactive)

## Nc1ccc2nc(N)sc2c1
[3]
  IC50: 9.57 µM (active)

## CCCCn1c(N)c(N(CC(C)C)C(=O)Cc2ccc(S(=O)(=O)N3CCOCC3)s2)c(=O)[nH]c1=O
[7]
  EC50: 6.11 µM (active)

## CCN(CC)CCN/C=C1/C(=O)NC(=O)N(Cc2ccccc2)C1=O
[4]
  EC50: > 300 µM (not active)
[5]
  EC50: > 300 µM (not active)

## O=C(NCc1ccccn1)C1Nc2ccc(C(F)(F)F)cc2C2C=CCC12 (configuration not stated)
[4]
  EC50: > 300 µM (not active)
[5]
  EC50: > 300 µM (not active)

## Cc1nc(C)c(-c2csc(NCCc3ccccc3)n2)s1
INS1
  AC50: 18 µM (active)

## Cc1ccc(/C=C/C(=O)c2ccc([N+](=O)[O-])o2)cc1
[8]
  EC50: 4.07 µM (active)
Streptokinase A
  EC50: 8.82 µM (active)
Streptococcus
  EC50: 14.2 µM (active)
INS1
  AC50: 5.65 µM (active)

## CN(C)/C=C1/C=C(c2ccccc2)OC1=O
[3]
  IC50: 52.1 µM (active)

## CC(=O)c1ccc(NC(S)=NC(C)c2ccc(Cl)cc2Cl)cc1 (configuration not stated)
INS1
  AC50: 15.6 µM (active)

## COc1cccc(C(=O)N2CCN(C3CCCCC3)CC2)c1
[3]
  IC50: 142 µM (active)

## CCS(=O)(=O)N1CCCCN2[C@H](CO)[C@H](c3ccc(C#Cc4ccccc4OC)cc3)[C@@H]2C1
[6]
  AC50: 8.09 µM (active)

## Cc1ccc2oc(C(Cl)(Cl)Cl)cc(=O)c2c1
[2]
  EC50: 27.9 µM (active)

## COc1cc2nc(NC(=O)c3ccc(Cl)cc3)sc(=O)c2cc1OC
[2]
  EC50: > 260 µM (inactive)

## O=c1[nH][nH]c2cc(=O)n(-c3ccc(Cl)cc3)nc12
[4]
  EC50: 15.4 µM (active)
[5]
  EC50: 4.09 µM (active)

## COc1ccc(C2C(C#N)=C(N)OC3=C2C(=O)CC(C)(C)C3)cc1Cn1cc([N+](=O)[O-])cn1 (configuration not stated)
[4]
  EC50: > 300 µM (not active)
[5]
  EC50: > 300 µM (not active)

## CC(=N)/C(C#N)=C(/O)CSc1nnc(-c2ccccc2Br)o1
[2]
  EC50: > 260 µM (inactive)

## COc1ccc(C2C(C#N)=C(N)OC3=C2C(=O)CC(C)(C)C3)cc1Cn1nc(C)c([N+](=O)[O-])c1C (configuration not stated)
[4]
  EC50: > 300 µM (not active)
[5]
  EC50: > 300 µM (not active)
